One data set in a line: In vivo PK profiling. To be noted: male, C57BL/6, mouse, plasma, mice. On the procedure:
PK profiling was outsourced and undertaken by Shanghai ChemPartner Co., Ltd. All animal experiments performed were conducted in compliance with the Institutional Animal Care and Use Committee (IACUC) and the Office of Laboratory Animal Welfare (OLAW) guidelines. Six- to eight-week-old C57BL/6 male mice purchased from Jihui Laboratory Animal Co. LTD were used in the study. […] The animals were restrained manually at the designated time points (0.083, 0.25, 0.5, 1, 2, 4, and 8 h); approximately, 110 μL of blood sample was collected via facial vein into K2EDTA tubes. Three mice per time point were used, resulting in a […]. The blood sample was put on ice and centrifuged at 2000g for 5 min to obtain the plasma sample within 15 min. The plasma samples were stored at approximately −70 °C until analysis. A 30 μL aliquot of plasma was added with 200 μL of internal standard (diclofenac, 40 ng/mL) in 1% formic acid in MeCN. The mixture was then vortexed for 1 min and then centrifuged for 10 min at 5800 rpm. The supernatant (100 μL) was transferred to a new plate. The solvent (0.5 μL) was injected to LC–MS/MS. LC–MS/MS instrument used: SCIEX LC–MS/MS-45 (Triple Quad 6500+). Data was analyzed by WinNonLin and Microsoft Excel.

The next data set is described as follows: Plasma stability. The format is in vitro ADME. To be noted: mouse plasma, 37 °C, over 1 h. On the procedure:
Plasma stability studies were outsourced and undertaken by Shanghai ChemPartner Co., Ltd. Buffer preparation: a solution of 0.05 M sodium phosphate and 0.07 M NaCl buffer at pH 7.4 was made by dissolving 14.505 g/L of Na2HPO4·12H2O, 1.483 g/L of NaH2PO4·2H2O, and 4.095 g/L of NaCl in deionized water, and the pH was adjusted with phosphoric acid. Plasma preparation: frozen mouse plasma was thawed by placing at 37 °C quickly. The thawed plasma was centrifuged at 3000 rpm for 8 min to remove clots, and the supernatant was pooled to be used as the plasma in the experiment. The plasma (pH 7.4–8.0) was stored on ice until used. […] Plasma and spiking solutions were prewarmed at 37 °C for 5 min, and then 10 μL of prewarmed spiking solution B was added into the wells designated for all the time points (5, 15, 30, 45, and 60 min). For 0 min, 400 μL of acetonitrile-containing internal standards (imipramine, glipizide) was added to the wells of a 0 min plate, and then 90 μL of plasma was added. For the time points (0, 5, 15, 30, 45, and 60 min), 90 μL of prewarmed plasma was added at the initial stage. At 5, 15, 30, 45, and 60 min, 400 μL of acetonitrile containing the internal standard (imipramine, glipizide) was added to the wells of the corresponding plates to stop the reaction. […] Data was analyzed with Microsoft Excel.

Another data set concerns 22RV1 cells. Put plainly: CellTiter-Glo 2.0 cell viability assay, 22RV1. The format is cell-based, human. To be noted: 22RV1, up to 1–10 μM.
Data set [1] concerns BromoTag-Brd2. Briefly: Time course degradation assay (western blot, 0–36 h) in heterozygous BromoTag-Brd2 HEK293 cells. The format is cell-based, human. To be noted: 500 nM. On the procedure:
Heterozygous BromoTag-Brd2 HEK293 cells were plated at a density of 5 × 10^5 cells per well of a six-well healthy plate a day prior to initiating the time course assay. […] The time point range was between 0 and 36 h. Treatment was applied in a staggered fashion to enable all time points to be harvested at the same time.
(§1) All cells were harvested on ice with RIPA lysis and extraction buffer (Thermo Fisher Scientific, 89901) supplemented with protease inhibitor cocktail (Merck, 11697498001) and Benzonase Nuclease (Sigma, E1014) before being stored at −20 °C prior to use. Total protein quantity was determined using the BCA protein assay (#23225, Pierce, Rockford, Illinois). The protein concentration was determined using the BCA assay (Thermo Fisher Scientific, 23225). The samples were then prepared and loaded onto NuPAGE 4–12% bis–tris Midi gels (Thermo Fisher Scientific, WG1403A), followed by the transfer of proteins onto nitrocellulose membranes (EMD Millipore). The membranes were blocked for 1 h prior to incubation with the primary antibodies using 5% Milk TBST. […] All western blots were analyzed for band intensities using Image Lab from Bio-Rad (LI-COR, Biosciences). The data extracted from these blots were then plotted and analyzed using Prism (v. 8.2.0, GraphPad).

Data set [2] relates to BromoTag-Brd2. Put plainly: Competition assay (inhibitor pretreatment, western blot). The format is cell-based, human. To be noted: 200 nM 46 for 3 h after 1 h pretreatment. How it is done: Heterozygous BromoTag-Brd2 HEK293 cells were plated in six-well plates at a density of 5 × 10^5 cells per well in 2 mL DMEM. […] After 3 h, the cells were harvested for subsequent processing via western blot. Each treatment was performed in tandem to produce two technical repeats per condition. The six-well plates were incubated for 4 h at 37 °C and 5% CO2 throughout the experiment.
as §1

Data set [3] relates to BromoTag-Brd2. Put plainly: Dose–response degradation assay (western blot, 6 h) in heterozygous BromoTag-Brd2 HEK293 cells. To be noted: 6 h; for DC50: read-out: DC50 of BromoTag-Brd2 degradation (DC50, 6h), single stereoisomers. Format: cell-based, human.
Procedure: All dose–response degradation assays were performed on the genotype-verified heterozygous BromoTag-Brd2 HEK293 cell line. Heterozygous BromoTag-Brd2 HEK293 cells were plated at a density of 5 × 10^5 cells per well of a six-well healthy plate a day before initiation of the titration experiment. PROTAC compounds were dissolved in DMSO at a concentration of 10 mM; from these stock concentrations, PROTAC compounds were diluted to appropriate concentrations using DMSO in the range of 10 μM to 1 nM. […] Control compounds such as MZ1 and cis-MZ1 were similarly dissolved in DMSO to an appropriate concentration. […] The cells were washed twice with PBS before being harvested.
The membranes were blocked for 1 h prior to incubation with the primary antibodies using 5% Milk TBST. […] Following overnight incubation with the primary antibodies at 4 °C, the membranes were incubated with secondary antibodies (anti-rabbit, Abcam AB216773, 1:5000 or anti-mouse, Abcam AB216774, 1:5000) and hFABTM rhodamine anti-tubulin antibody (Biorad, 12004165, 1:10,000) for 1 h and then imaged with a Bio-Rad imager (LI-COR Biosciences). All western blots were analyzed for band intensities using Image Lab from Bio-Rad (LI-COR, Biosciences). The data extracted from these blots were then plotted and analyzed using Prism (v. 8.2.0, GraphPad).
Setting [4] is: eight-point 10 μM to 1 nM, mean ±S.E. of two repeats.

“And” between values parts separate entries of the source, which are not always exact repeats. Identical values can stand only once. Like-named read-outs stand apart in the source and are kept apart here.

Procedure for 22RV1 cells: All cell lines were treated with compounds in duplicate (triplicate for DMSO controls) at a 1× concentration in 0.1% DMSO. The compounds were serially diluted to produce a 7-point, 10-fold titration. The cells were treated with 50:100 μL of compound for a final concentration of 10 μM:10 pM in 0.1% DMSO. At the point of spectrometric analysis, cells were treated with 100 μL of Promega CellTiter-Glo 2.0 Cell Viability Assay reagent. The plates were subjected to an orbital shaker for 2 min to encourage lysis and left for a further 5 min to reach peak luminescence. Luminescence was then recorded on a BMG Labtech PHERAstar luminescence plate reader with recommended settings. Data extracted from this analysis was analyzed with GraphPad Prism (v. 8.2.0, GraphPad) and normalized to the DMSO vehicle control. The EC50 values were derived from these plots.

With `CC[C@@H](C(=O)OCCOCCOCCOCC(=O)N[C@H](C(=O)N1C[C@H](O)C[C@H]1C(=O)NCc1ccc(-c2scnc2C)cc1)C(C)(C)C)[C@@H]1N=C(c2ccc(Cl)cc2)c2c(sc(C)c2C)-n2c(C)nnc21` [AGB1 (46), (S)-13-((2S,4R)-4-Hydroxy-2-((4-(4-methylthiazol-5-yl)benzyl)carbamoyl)pyrrolidine-1-carbonyl)-14,14-dimethyl-11-oxo-3,6,9-trioxa-12-azapentadecyl (R)-2-((S)-4-(4-chlorophenyl)-2,3,9-trimethyl-6H-thieno[3,2-f][1,2,4]triazolo[4,3-a][1,4]diazepin-6-yl)butanoate], in the data set “In vivo PK profiling” (IV (5 mg/kg)), the exposure AUC(0-t) at 8 h was found to be 1710 nM·h, the MRT inf amounted to 23.4 min, the clearance at 8 h was 2.83 L/h/kg and the half-life at 8 h was 89.4 min. The AUC(0-inf) at 8 h in the data set “In vivo PK profiling” (IV (5 mg/kg), read-out: AUCinf) was 1720 nM·h. In addition, the Vd at 8 h in “In vivo PK profiling” (IV (5 mg/kg), read-out: Vss) is 1.1 L/kg. Further, in “In vivo PK profiling” (SC (5 mg/kg)), the AUC(0-t) at 8 h worked out at 2330 nM·h, the Cmax at 8 h was 0.7 µM, the time of peak concentration (Tmax) at 8 h came to 30 min and the half-life at 8 h was 99 min. In addition, the AUC(0-inf) at 8 h in “In vivo PK profiling” (SC (5 mg/kg), read-out: AUCinf (μ; M·h)) turned out to be 2400 nM·h. The “plasma stability: levels remaining” value in the data set “Plasma stability” is reported as “no significant changes”. In addition, the cytotoxicity entry with 22RV1 cells is listed as “lack of cytotoxicity”. Further, the “time to completely degrade BromoTag-Brd2” value with BromoTag-Brd2 [1] is no more than 6 h. The “on-target degradation activity upon pretreatment with MLN4924 or VH298” value with BromoTag-Brd2 [2] (3 μM MLN4924, 10 μM VH298) is on record as “completely abrogated”. The “on-target degradation activity upon pretreatment with MG132” value in the data set on BromoTag-Brd2 [2] (50 μM MG132) is on record as “blocked”. In the data set with BromoTag-Brd2 [3] (setting [4]), the “pDC50 (Ab: Brd^4BD2 L387A)” value came to 7.8 ± 0.2 and the “pDC50 (Ab: BromoTag-Brd2)” value is on record as 7.9 ± 0.1. Further, the half-maximal degradation concentration (DC50) in the data set with BromoTag-Brd2 [3] lay within 0.0126 to 0.0145 µM. The DC50 in the data set on BromoTag-Brd2 [3] (listed as 46) is 0.013 to 0.015 µM and ~0.013 µM.

The values are drawn from publication PMC8558867, “Development of BromoTag: A “Bump-and-Hole”–PROTAC System to Induce Potent, Rapid, and Selective Degradation of Tagged Target Proteins” (Journal of Medicinal Chemistry, 2021).
